The term pIC50 denotes the IC50 on a negative log10 scale, so that one unit is a factor of ten. Read a low pIC50 as a large IC50.

What all share (assay type): subcellular
In experiment [1] the target is Core antigen (Hepatitis B virus) (UniProt Q03732). Put plainly: Inhibition of Hepatitis B virus capsid formation at 3 uM treated during cell-free wild type HBV Cp synthesis using wheat germ lysates and HBV Cp RNA by Native capsid assay based western blot analysis. On the technique in general: Immunoblotting shows a protein as a band on a membrane.
Chain of Core antigen (Hepatitis B virus) (Q03732 as listed by the source): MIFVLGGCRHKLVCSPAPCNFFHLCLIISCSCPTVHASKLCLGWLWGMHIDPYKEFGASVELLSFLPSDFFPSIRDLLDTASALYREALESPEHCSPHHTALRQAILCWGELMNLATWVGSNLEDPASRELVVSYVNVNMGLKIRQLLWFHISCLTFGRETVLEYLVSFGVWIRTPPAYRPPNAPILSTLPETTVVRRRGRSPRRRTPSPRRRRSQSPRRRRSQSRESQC
For experiment [2] the target is unchanged. Put plainly: Inhibition of Hepatitis B virus capsid formation at 100 uM treated during cell-free wild type HBV Cp synthesis using wheat germ lysates and HBV Cp RNA by Native capsid assay based western blot analysis.
For experiment [3] the target is unchanged. Put plainly: Inhibition of Hepatitis B virus capsid formation at 100 uM treated during cell-free HBV Cp T33N mutant synthesis using wheat germ lysates and HBV Cp RNA by Denatured capsid assay based western blot analysis.
For experiment [4], the target named is Core antigen (Hepatitis B virus, UniProt Q03732). As to the kind of experiment: Inhibition of Hepatitis B virus capsid formation treated during cell-free wild type HBV Cp synthesis using wheat germ lysates and HBV Cp RNA by Denatured capsid assay based western blot analysis.
Chain of Core antigen (Q03732 whole entry): as the sequence (Q03732 as listed by the source) above
The target of experiment [5] is Core antigen (Hepatitis B virus) (UniProt Q03732). As to the kind of experiment: Inhibition of Hepatitis B virus capsid formation at 10 uM treated during cell-free HBV Cp T33N mutant synthesis using wheat germ lysates and HBV Cp RNA by Denatured capsid assay based western blot analysis.

pIC50: −log10 of the molar value. The source made the active and inactive calls. Unless noted, the calls are words filed in the database; no cut-off is given here. Residues, ends and D or L forms follow the SMILES beside them.

`CCOC(=O)C1=C(CN2CCOCC2)NC(c2nccs2)=NC1c1ccc(F)cc1Br` (stereo not given): the inhibition result in experiment [1] is “Active”.

As for `CC[C@H](C)[C@H](NC(=O)[C@H](Cc1c[nH]cn1)NC(=O)[C@H](Cc1ccccc1)NC(=O)[C@H](Cc1c[nH]c2ccccc12)NC(=O)[C@H](CC(C)C)NC(=O)[C@H](CC(C)C)NC(=O)[C@H](CCC(N)=O)NC(=O)[C@H](CCCNC(=N)N)NC(=O)[C@H](Cc1ccccc1)NC(=O)[C@H](CCCCN)NC(C)=O)C(=O)N[C@@H](CO)C(=O)N[C@@H](CS)C(=O)N[C@@H](CC(C)C)C(=O)N[C@H](C(=O)N[C@@H](Cc1ccccc1)C(N)=O)[C@@H](C)O` (Ac-KFRQLLWFHISCLTF-NH2), the inhibition result in experiment [2] is given as “Active; Significantly Inhibited Hbv-Capsid Formation Of 72 Peptides Tested”; in experiment [3], “Active; Comparable Activity To Gls4, Positive Control”; in experiment [5], “Active; Greater Efficacy Compared To Gls4 Observed”. In addition, in experiment [4], the negative logarithm of the IC50 (pIC50) was 4.36.
